What was measured:
MDCK cells [1] = test system: MDCK cells
Procedure: This example describes a technique that uses cross-electrode impedance mapping to quantify adhesion or adherence of cells in a cell culture. The terms “adhesion” and “adherence” may be used interchangeably herein.
In this example, ethylenediaminetetraacetic acid (EDTA) was applied to the cells. EDTA is a calcium chelator that removes Ca^2+ needed for integrin proteins to maintain cell adhesion. With EDTA applied, the cells quickly detached over a duration of time of about 50 min. The EDTA was then washed out by adding normal culture media, where the cells re-attached over a duration of time of about 200 min.
FIG. 6b is a data plot showing mean normalized impedance values over time for different regions of a map 601 of an electrode array in the cell culture. FIG. 6c show histograms of the normalized impedance values before, during, and after a washout of EDTA across the electrode array.

MDCK cells [2] = experiment: Wound healing assay (electrochemical patterning and cross-electrode impedance mapping of regrowth); format: cell-based, Canine; settings: 1 μM, over the course of 72 hours; control culture shows regrowth after 72 hours
Source text: This example describes a combined application of cross-electrode impedance mapping and cell patterning for a wound healing assay. Such assays may be used to gauge cell growth rate and metabolism and may be useful for screening drugs affecting these parameters. Compared to the electrochemical patterning described herein, other tools mechanically generate a wound in a cell culture via a mechanical scratch which is both difficult to control and limiting in terms of wound pattern.
In this example, a wound is made in MDCK cells and then growth is mapped in real time. […] These patterns were defined by applying electrode currents of −10 nA for 40 s versus a Ag/AgCl pseudo reference electrode. The regrowth of the culture was then measured using the impedance mapping method.

| Compound | duration of time over which the cells detached (MDCK cells [1]; 5 mM EDTA application) | duration of time over which the cells re-attached after washout (MDCK cells [1]; EDTA washed out by adding normal culture media) | regrowth of the culture into the wound (MDCK cells [2]) |
| --- | --- | --- | --- |
| O=C(O)CN(CCN(CC(=O)O)CC(=O)O)CC(=O)O [EDTA, ethylenediaminetetraacetic acid] | about 50 min | about 200 min | – |
| C=C1[C@@H](C)[C@H]2[C@H](Cc3ccccc3)NC(=O)[C@]23OC(=O)/C=C/[C@H](O)CCC[C@@H](C)C/C=C/[C@H]3[C@@H]1O [cytochalasin B] | – | – | very little growth |
